Target: T1, PPARγ (Homo sapiens, UniProt P37231)
T1 sequence (P37231 231-505 limits assumed): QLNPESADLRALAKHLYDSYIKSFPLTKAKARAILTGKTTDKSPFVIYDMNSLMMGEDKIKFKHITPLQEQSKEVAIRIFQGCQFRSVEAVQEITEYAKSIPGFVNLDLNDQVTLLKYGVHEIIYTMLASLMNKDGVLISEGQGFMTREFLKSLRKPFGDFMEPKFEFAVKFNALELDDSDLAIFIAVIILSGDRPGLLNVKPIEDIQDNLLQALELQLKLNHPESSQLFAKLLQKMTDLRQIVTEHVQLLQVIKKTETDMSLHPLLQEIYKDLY
Test: competitive TR-FRET binding assay

Structure (SMILES): CC(C)=CCC[C@](C)(O)[C@H]1CC[C@]2(C)[C@@H]1[C@H](O)C[C@@H]1[C@@]3(C)CC[C@H](O)C(C)(C)[C@@H]3[C@@H](O)C[C@]12C [PPT, 20(S)-5α-Dammar-24-ene-3β,6α,12β,20-tetrol]
- Ki: 4.2 µM
